The values below come from the supplement of paper PMC4862054.

Values joined by “and” are separate entries in the source; they are usually repeats but may differ in a detail not shown here. Equal values may be shown once.

What all share (details): incubation time: 72 h
Assay [1] relates to CAL-51. Nature of the assay: normalised viability (% of control), CellTiter-Blue; higher = more viable cells (about 100 = DMSO control). The procedure, abridged:
(§1)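 The reported quantity is normalised viability at a single listed concentration of the series. Compound in 5 µl medium was pre-dispensed into 384-well plates and 20 µl of breast cancer cell suspension was added for 72 h. A 2 h, 37 °C CellTiter-Blue step (2.5 µl) preceded fluorescence reading at 560/590 nm, and plates were normalised to vehicle (100) and a positive kill control (0).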
For orientation: The colour change of resazurin is a common sign of viable cells or microbes.

In assay [2] the test system is CAL-85-1. The description is as above. The procedure, abridged: as §1
For assay [3], the system named is DU-4475. The description is as above. The procedure, abridged:
as §1

Assay [4] relates to HDQ-P1. Described as above. The procedure, abridged:
as §1

Assay [5] has as its system MDA-MB-453. Described as above. The procedure, abridged:
as §1

The subject of assay [6] is CAL-120. Described as above. Put shortly: as §1
The test system of assay [7] is SK-BR-3. The description is as above. The procedure, abridged: as §1
A further assay has as its system BT-474. Kind of assay: drug sensitivity score (DSS), CellTiter-Glo (DSS (AUC-based score)); higher = stronger drug effect (viability inhibition or cytotoxicity); extreme values may be limits of the assay. The procedure, abridged: (§2)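 After 72 h of incubation in 384-well plates with compound at 5 concentrations (10-fold steps, 10,000-fold range set per compound), breast cancer cell lines seeded in 20 µl suspension were read first for CellTox Green fluorescence at 485/520 nm. CellTiter-Glo luminescence was measured next, after 10 min at room temperature. Normalisation on each plate used 0.1 % DMSO and a positive kill control, and the drug sensitivity score was computed from the area under the fitted dose-response curve.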
On the technique in general: In ATP-based viability assays light output follows the ATP content of the culture.

The test system of another assay is BT-549. The description is as above. The procedure, abridged:
as §2

The subject of assay [8] is CAL-120. Described as above. The procedure, abridged: as §2
The next assay has as its system CAL-148. The description is as above. Put shortly:
as §2

The test system of assay [9] is CAL-51. The description is as above. Put shortly:
as §2

In assay [10] the test system is CAL-85-1. Described as above. The procedure, abridged: as §2
Assay [11] has as its system DU-4475. The assay is described as above. The procedure, abridged:
as §2

The next assay deals with HCC1143. Described as above. The procedure, abridged:
as §2

Another assay deals with HCC1599. The assay is described as above. The procedure, abridged:
as §2

The subject of another assay is HCC1937. The description is as above. Put shortly:
as §2

Assay [12] deals with HDQ-P1. The description is as above. The procedure, abridged: as §2
For the next assay, the system named is Hs578T. Described as above. Put shortly: as §2
For a further assay, the system named is MCF-10A. Described as above. The procedure, abridged:
as §2

Another assay concerns MDA-MB-231. The description is as above. Put shortly: as §2
The subject of the next assay is MDA-MB-436. The assay is described as above. Put shortly:
as §2

Assay [13] has as its system MDA-MB-453. Described as above. The procedure, abridged:
as §2

A further assay deals with MDA-MB-468. Described as above. The procedure, abridged:
as §2

A further assay has as its system MFM-223. The assay is described as above. Put shortly: as §2
Assay [14] deals with SK-BR-3. Described as above. Put shortly:
as §2

As to `CC1=C2C[C@H]3[C@@H](CC=C4C[C@@H](O)CC[C@@]43C)[C@@H]2CC[C@]12O[C@@H]1C[C@H](C)CN[C@H]1[C@H]2C` [Cyclopamine] (10000 nM), the normalised viability worked out at 102% in the assay with CAL-51 [1]; 94.8% in the assay with CAL-85-1 [2]; 107% with DU-4475 [3]; 148% in the assay with HDQ-P1 [4]; 119% in the assay with MDA-MB-453 [5].

As to `Cn1cnc2c(F)c(Nc3ccc(Br)cc3Cl)c(C(=O)NOCCO)cc21` [Selumetinib] (10000 nM), the normalised viability with CAL-51 [1] came to 80.3%; in the assay on CAL-85-1 [2], 49.6%; with DU-4475 [3] it was 0.33%; with HDQ-P1 [4], 65.7%; with MDA-MB-453 [5] it was 75.8%.

For `O=NN(CCCl)C(=O)NCCCl` [Carmustine] (10000 nM), the normalised viability in the assay on CAL-51 [1] came to 98.2%; in the assay with CAL-85-1 [2], 95.6%; with DU-4475 [3] it was 105%; in the assay on HDQ-P1 [4], 114%; in the assay with MDA-MB-453 [5], 115%.

Turning to `CC(C)(C)c1cnc(CSc2cnc(NC(=O)C3CCNCC3)s2)o1` [SNS-032] (10000 nM), the normalised viability in the assay on CAL-51 [1] was 4.67%; with CAL-85-1 [2], 2.06%; in the assay on DU-4475 [3], -0.36%; in the assay on HDQ-P1 [4] it was 12.7%; in the assay on MDA-MB-453 [5], 18.6%.

Regarding `O=C1CN2Cc3c(ccc(Cl)c3Cl)N=C2N1` [Anagrelide] (10000 nM), the normalised viability in the assay on CAL-51 [1] amounted to 83.8%; in the assay on CAL-85-1 [2], 89.8%; in the assay on DU-4475 [3] it was 108%; in the assay with HDQ-P1 [4], 118%; in the assay on MDA-MB-453 [5], 90.9%.

For the compound `Nc1nc2[nH]cnc2c(=S)[nH]1` [Thioguanine] (10000 nM), the normalised viability stood at 54.2% in the assay with CAL-51 [1]; 61.8% in the assay on CAL-85-1 [2]; 73.8% with DU-4475 [3]; 58.5% in the assay with HDQ-P1 [4]; 73.1% in the assay with MDA-MB-453 [5].

`CC(=O)O[C@@]12CO[C@@H]1C[C@H](O)[C@@]1(C)C(=O)[C@H](O)C3=C(C)[C@@H](OC(=O)[C@H](O)[C@@H](NC(=O)OC(C)(C)C)c4ccccc4)C[C@@](O)([C@@H](OC(=O)c4ccccc4)[C@H]21)C3(C)C` [Docetaxel]: the normalised viability in the assay with CAL-120 [6] (1 nM) was 84.9% and 81.7%; in the assay with CAL-120 [6] (100 nM), 25% and 23.5%; with CAL-120 [6] (1000 nM) it was 25.8% and 23.3%; in the assay on SK-BR-3 [7] (1 nM) it was 85.7% and 86.8%; in the assay on SK-BR-3 [7] (100 nM), 19% and 14.4%; in the assay on SK-BR-3 [7] (1000 nM), 18.3% and 14.1%. Moreover, the drug sensitivity score in the assay with BT-474 was 15.6; with BT-549, 30.5; in the assay with CAL-120 [8], 13.3; in the assay with CAL-148, 20.5; in the assay on CAL-51 [9], 19.5; in the assay with CAL-85-1 [10] it was 25.6. Also, the drug sensitivity score with DU-4475 [11] came to 15.1; in the assay with HCC1143, 23.7; with HCC1599, 16.7; with HCC1937 it was 10.6; in the assay with HDQ-P1 [12], 10.6; in the assay on Hs578T, 27.2. Also, the drug sensitivity score was 20.4 in the assay with MCF-10A; 19.4 in the assay with MDA-MB-231; 22 with MDA-MB-436; 14.8 with MDA-MB-453 [13]; 27.3 with MDA-MB-468; 16.7 in the assay with MFM-223. The compound also yielded a drug sensitivity score with SK-BR-3 [14] of 31.4.

For the compound `Oc1ncnc2[nH]ncc12` [Allopurinol], the normalised viability is 120% in the assay with CAL-120 [6] (10 nM); 109% in the assay with CAL-120 [6] (1000 nM); 108% in the assay with CAL-120 [6] (10000 nM); 100% with SK-BR-3 [7] (10 nM); 103% in the assay with SK-BR-3 [7] (1000 nM); 105% with SK-BR-3 [7] (10000 nM). In addition, the drug sensitivity score in the assay with BT-474, in the assay on BT-549, with CAL-120 [8], in the assay with CAL-148, with CAL-51 [9] and with CAL-85-1 [10] was 0 in each case. Besides, the drug sensitivity score with DU-4475 [11], in the assay with HCC1143, in the assay with HCC1599, in the assay with HCC1937, with HDQ-P1 [12] and with Hs578T was 0 in each case. The drug sensitivity score with MCF-10A, in the assay with MDA-MB-231, in the assay on MDA-MB-436, in the assay with MDA-MB-453 [13], with MDA-MB-468 and in the assay with MFM-223 was 0 throughout. For the same compound, the drug sensitivity score in the assay on SK-BR-3 [14] is 0.

`O=C1CN2Cc3c(ccc(Cl)c3Cl)N=C2N1` [Anagrelide]: the normalised viability in the assay on CAL-120 [6] (10 nM) amounted to 91.3%; in the assay on CAL-120 [6] (1000 nM) it was 91.9%; in the assay with CAL-120 [6] (10000 nM) it was 86.2%; in the assay with SK-BR-3 [7] (10 nM), 119%; in the assay with SK-BR-3 [7] (1000 nM) it was 110%; with SK-BR-3 [7] (10000 nM) it was 107%. In addition, the drug sensitivity score with BT-474 was determined as 0.269; in the assay with BT-549, 0; with CAL-120 [8] it was 0; in the assay with CAL-148 it was 0; in the assay on CAL-51 [9], 0.565; in the assay on CAL-85-1 [10], 0. The drug sensitivity score with DU-4475 [11] came out at 0; in the assay with HCC1143, 0; in the assay on HCC1599 it was 0; in the assay with HCC1937 it was 0; in the assay with HDQ-P1 [12] it was 0; in the assay on Hs578T it was 1.32. Also, the drug sensitivity score with MCF-10A, with MDA-MB-231, in the assay on MDA-MB-436, with MDA-MB-453 [13], in the assay on MDA-MB-468 and in the assay with MFM-223 was 0 each time. This compound also registered a drug sensitivity score in the assay on SK-BR-3 [14] of 0.

For `Nc1ncn([C@@H]2O[C@H](CO)[C@@H](O)[C@H]2O)c(=O)n1` [Azacitidine] (10000 nM), the normalised viability worked out at 102% in the assay on CAL-51 [1]; 102% in the assay on CAL-85-1 [2]; 77.7% with DU-4475 [3]; 68.4% in the assay with HDQ-P1 [4]; 82% with MDA-MB-453 [5].
